From BindingDB's records for PubMed 35227979 (Northwest University, 2022)

Molecular target: Beta-2 adrenergic receptor (Homo sapiens, UniProt P07550)
Test: Binding affinity to immobilized Halo tag-fused beta2 adrenoceptor (unknown origin) expressed in Escherichia coli BL21 (DE3) assessed as dissociation rate constant by receptor chromatography

Chain of Beta-2 adrenergic receptor (P07550 whole entry, the tested form may be a part): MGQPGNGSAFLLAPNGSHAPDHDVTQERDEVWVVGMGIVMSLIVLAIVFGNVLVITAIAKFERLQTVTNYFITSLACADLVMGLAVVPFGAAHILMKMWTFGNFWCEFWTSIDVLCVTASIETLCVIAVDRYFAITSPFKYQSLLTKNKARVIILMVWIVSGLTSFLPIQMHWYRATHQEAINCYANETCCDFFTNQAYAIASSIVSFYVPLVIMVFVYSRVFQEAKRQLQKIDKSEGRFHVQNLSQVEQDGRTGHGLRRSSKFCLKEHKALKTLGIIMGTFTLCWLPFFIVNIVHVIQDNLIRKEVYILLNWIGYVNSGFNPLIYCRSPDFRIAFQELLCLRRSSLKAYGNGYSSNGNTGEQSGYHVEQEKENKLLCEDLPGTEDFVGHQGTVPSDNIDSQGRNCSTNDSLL

Structure (SMILES)	Kd
CC1(C)[C@@H](O)CC[C@]2(C)[C@H]3C(=O)C=C4[C@@H]5C[C@@](C)(C(=O)NCCc6ccc(O)cc6)CC[C@]5(C)CC[C@@]4(C)[C@]3(C)CC[C@@H]12	7.5 nM
CNC(C)Cc1ccccc1OC (configuration not stated) [Methoxyphenamine]	0.98 nM
